Source: patent publication US12157730B2, “Heteroaryl derivative, method for producing same, and pharmaceutical composition comprising same as effective component” (VORONOI INC., priority 2019, dated 2024)

What follows are molecules tested against T1, Ba/F3 cell EGFR Exon20 ins NPH (Homo sapiens, UniProt P00533, INS773NPH) (assay: Ba/F3 cell proliferation suppression, EGFR Exon20 ins NPH). Conditions: GI50 class; Ba/F3 cell line with NPH inserted at Exon20 of EGFR; 72 hours.
T1 construct: expressed in transfected cells; host or cells: Ba/F3
Assay type: cell-based
Outline: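 Seed 3000–5000 cells/well; after 24 h add compound (12 conc., 0.3 nM–50 um final); incubate 72 h; add CellTiter-Glo, 10 min room temperature; read luminescence; GI50 from % growth vs control, triplicate.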
For `C=CC(=O)Nc1cc(Nc2cc(N3OCC[C@@H]3c3cccc(C(F)(F)F)c3)ncn2)c(OC)cc1N1CC[C@H](N2CCOCC2)C1` [compound 507, N-(4-methoxy-2-((S)-3-morpholinopyrolidine-1-yl)-5-((6-((R)-3-(3-(trifluoromethyl)phenyl)isoxazolidine-2-yl)pyrimidine-4-yl)amino)phenyl)acrylamide], the “Ba/F3 (NPH) Activity” value was “B (50 nM ≤ GI50 < 500 nM)”.
In the case of `C=CC(=O)Nc1cc(Nc2cc(N3OCC[C@@H]3c3cccc(C(F)(F)F)c3)ncn2)c(OC)cc1N1CCC(N(C)C)CC1` [compound 451, N-(2-(4-(dimethlamino)piperidine-1-yl)-4-methoxy-5-((6-((R)-3-(3-(trifluoromethyl)phenyl)isoxazolidine-2-yl)pyrimidine-4-yl)amino)phenyl) acrylamide], the “Ba/F3 (NPH) Activity” value is reported as “A (GI50 < 50 nM)”.
With `C=CC(=O)Nc1cc(Nc2cc(N3OCC[C@@H]3c3cccc(C)c3F)ncn2)c(OC)cc1N1CCC(N2CCOCC2)CC1` [compound 856, N-(5-((6-((R)-3-(2-fluoro-3-methylphenyl)isoxazolidine-2-yl)pyrimidine-4-yl)amino)-4-methoxy-2-(4-morpholinopiperidine-1-yl)phenyl)acrylamide] the “Ba/F3 (NPH) Activity” value was “A (GI50 < 50 nM)”.
In the case of `C=CC(=O)Nc1cc(Nc2cc(N3OCC[C@@H]3c3ccc(F)c(Cl)c3)ncn2)c(OC)cc1N1CCC(N2C[C@@H](C)N(C3CC3)C[C@H]2C)CC1` [Example 178, N-(5-((6-((R)-3-(3-chloro-4-fluorophenyl)isoxazolidine-2-yl)pyrimidine-4-yl)amino)-2-(4-((2R,5R)-4-cyclopropyl-2,5-dimethylpiperazine-1-yl)piperidine-1-yl)-4-methoxyphenyl) acrylamide], the “Ba/F3 (NPH) Activity” value is reported as “A (GI50 < 50 nM)”.
`C=CC(=O)Nc1cc(Nc2cc(N3OCC[C@@H]3c3cccc(Cl)c3)ncn2)c(OC)cc1N1CCN(C2COC2)CC1` [compound 470, N-(5-((6-((R)-3-(3-chlorophenyl)isoxazolidine-2-yl)pyrimidine-4-yl)amino)-4-methoxy-2-(4-(oxetane-3-yl)piperazine-1-yl)phenyl) acrylamide] was tested, and the “Ba/F3 (NPH) Activity” value was “A (GI50 < 50 nM)”.
For `C=CC(=O)Nc1cc(Nc2cc(N3OCC[C@@H]3c3ccc(Cl)cc3F)ncn2)c(OC)cc1N1CCC(N2C[C@@H]3C[C@H]2CO3)CC1` [compound 373, N-(2-(4-((1S,4S)-2-oxa-5-azabicyclo[2.2.1]heptane-5-yl)piperidine-1-yl)-5-((6-((R)-3-(4-chloro-2-fluorophenyl)isoxazolidine-2-yl)pyrimidine-4-yl)amino)-4-methoxyphenyl) acrylamide], the “Ba/F3 (NPH) Activity” value was “A (GI50 < 50 nM)”.
`C=CC(=O)Nc1cc(Nc2cc(N3OCC[C@@H]3Cc3cccc(Cl)c3F)ncn2)c(OC)cc1N1CCC(N2C[C@H]3C[C@@H]2CO3)CC1` [compound 1021, N-(2-(4-((1R,4R)-2-oxa-5-azabicyclo [2.2.1]heptane-5-yl)piperidine-1-yl)-5-((6-((S)-3-(3-chloro-2-fluorobenzyl)isoxazolidine-2-yl)pyrimidine-4-yl)amino)-4-methoxyphenyl) acrylamide] was tested, and the “Ba/F3 (NPH) Activity” value was “A (GI50 < 50 nM)”.
For `C=CC(=O)Nc1cc(Nc2cc(N3OCC[C@@H]3c3ccc(F)cc3)ncn2)c(OC)cc1N1CCC(N2CCN(C(C)=O)CC2)CC1` [compound 809, N-(2-(4-(4-acetylpiperazine-1-yl)piperidine-1-yl)-5-((6-((R)-3-(4-fluorophenyl)isoxazolidine-2-yl)pyrimidine-4-yl)amino)-4-methoxyphenyl) acrylamide], the “Ba/F3 (NPH) Activity” value was “A (GI50 < 50 nM)”.
With `C=CC(=O)Nc1cc(Nc2cc(N3OCC[C@@H]3c3ccc(Cl)c(F)c3)ncn2)c(OC)cc1N1CCC(N2CCN(C3CC3)CC2)CC1` [Example 63, N-(5-((6-((R)-3-(4-chloro-3-fluorophenyl)isoxazolidine-2-yl)pyrimidine-4-yl)amino)-2-(4-(4-cyclopropylpiperazine-1-yl)piperidine-1-yl)-4-methoxyphenyl) acrylamide] the “Ba/F3 (NPH) Activity” value was “A (GI50 < 50 nM)”.
With `C=CC(=O)Nc1cc(Nc2cc(N3OCC[C@@H]3c3c(F)ccc(F)c3Cl)ncn2)c(OC)cc1N1CCC(N2C[C@@H]3C[C@H]2CO3)CC1` [compound 693, N-(2-(4-((1S,4S)-2-oxa-5-azabicyclo[2.2.1]heptane-5-yl)piperidine-1-yl)-5-((6-((R)-3-(2-chloro-3,6-difluorophenyl)isoxazolidine-2-yl)pyrimidine-4-yl)amino)-4-methoxyphenyl) acrylamide] the “Ba/F3 (NPH) Activity” value was “A (GI50 < 50 nM)”.
`C=CC(=O)Nc1cc(Nc2cc(N3OCC[C@@H]3c3cccc(C)c3F)ncn2)c(OC)cc1N1CCC(N2C[C@H](C)N(C3CC3)C[C@@H]2C)CC1` [Example 123, N-(2-(4-((2S,5S)-4-cyclopropyl-2,5-dimethylpiperazine-1-yl)piperidine-1-yl)-5-((6-((R)-3-(2-fluoro-3-methylphenyl)isoxazolidine-2-yl)pyrimidine-4-yl)amino)-4-methoxyphenyl) acrylamide] was tested, and the “Ba/F3 (NPH) Activity” value was “A (GI50 < 50 nM)”.
For `C=CC(=O)Nc1cc(Nc2cc(N3OCC[C@@H]3c3cccc(F)c3F)ncn2)c(OC)cc1N1CCC(N2CCN(C3CCC3)CC2)CC1` [Example 182, N-(2-(4-(4-cyclobutylpiperazine-1-yl)piperidine-1-yl)-5-((6-((R)-3-(2,3-difluorophenyl)isoxazolidine-2-yl)pyrimidine-4-yl)amino)-4-methoxyphenyl) acrylamide], the “Ba/F3 (NPH) Activity” value was “A (GI50 < 50 nM)”.
In the case of `C=CC(=O)Nc1cc(Nc2cc(N3OCC[C@@H]3c3cc(F)cc(F)c3)ncn2)c(OC)cc1N1C[C@H]2CCN(C)[C@H]2C1` [compound 890, N-(5-((6-((R)-3-(3,5-difluorophenyl)isoxazolidine-2-yl)pyrimidine-4-yl)amino)-4-methoxy-2-((3aR,6aR)-1-methylhexahydropyrrolo [3,4-b]pyrrole-5(1H)-yl)phenyl) acrylamide], the “Ba/F3 (NPH) Activity” value is reported as “A (GI50 < 50 nM)”.
`C=CC(=O)Nc1cc(Nc2cc(N3OCC[C@@H]3c3cccc(C#N)c3)ncn2)c(OC)cc1N1CCC(N2CCN(C3CC3)C[C@@H]2C)CC1` [Example 132, N-(5-((6-((R)-3-(3-cyanophenyl)isoxazolidine-2-yl)pyrimidine-4-yl)amino)-2-(4-((S)-4-cyclopropyl-2-methylpiperazine-1-yl)piperidine-1-yl)-4-methoxyphenyl) acrylamide] was tested, and the “Ba/F3 (NPH) Activity” value was “B (50 nM ≤ GI50 < 500 nM)”.
`C=CC(=O)Nc1cc(Nc2cc(N3OCC[C@@H]3c3cc(F)cc(F)c3)ncn2)c(F)cc1N1CCC(N2CCN(C3CC3)CC2)CC1` [compound 533, N-(2-(4-(4-cyclopropylpiperazine-1-yl)piperidine-1-yl)-5-((6-((R)-3-(3,5-difluorophenyl)isoxazolidine-2-yl)pyrimidine-4-yl)amino)-4-fluorophenyl) acrylamide] was tested, and the “Ba/F3 (NPH) Activity” value was “A (GI50 < 50 nM)”.
With `C=CC(=O)Nc1cc(Nc2cc(N3OCC[C@@H]3c3cccc(Cl)c3Cl)ncn2)c(OC)cc1N1CCC(N2CCN(C3CCOCC3)CC2)CC1` [Example 208, N-(5-((6-((R)-3-(2,3-dichlorophenyl)isoxazolidine-2-yl)pyrimidine-4-yl)amino)-4-methoxy-2-(4-(4-(tetrahydro-2H-pyran-4-yl)piperazine-1-yl)piperidine-1-yl)phenyl)acrylamide] the “Ba/F3 (NPH) Activity” value was “A (GI50 < 50 nM)”.
With `C=CC(=O)Nc1cc(Nc2cc(N3OCC[C@@H]3c3ccc(F)cc3F)ncn2)c(OC)cc1N1CCN(C)CC1` [compound 326, N-(5-((6-((R)-3-(2,4-difluorophenyl)isoxazolidine-2-yl)pyrimidine-4-yl)amino)-4-methoxy-2-(4-methylpiperazine-1-yl)phenyl)acrylamide] the “Ba/F3 (NPH) Activity” value was “A (GI50 < 50 nM)”.
With `C=CC(=O)Nc1cc(Nc2cc(N3OCC[C@@H]3c3cccc(Cl)c3Cl)ncn2)c(OC)cc1N1CCN(C)CC1` [compound 481, N-(5-((6-((R)-3-(2,3-dichlorophenyl)isoxazolidine-2-yl)pyrimidine-4-yl)amino)-4-methoxy-2-(4-methylpiperazine-1-yl)phenyl)acrylamide] the “Ba/F3 (NPH) Activity” value was “A (GI50 < 50 nM)”.
`C=CC(=O)Nc1cc(Nc2cc(N3OCC[C@@H]3c3cccc(Cl)c3Cl)ncn2)c(OC)cc1N1CCN(C2CC2)CC1` [compound 518, N-(2-(4-cyclopropylpiperazine-1-yl)-5-((6-((R)-3-(2,3-dichlorophenyl)isoxazolidine-2-yl)pyrimidine-4-yl)amino)-4-methoxyphenyl) acrylamide] was tested, and the “Ba/F3 (NPH) Activity” value was “A (GI50 < 50 nM)”.
`C=CC(=O)Nc1cc(Nc2cc(N3OCC[C@@H]3c3c(F)ccc(F)c3F)ncn2)c(OC)cc1N1CCC(N2CCN(C3CC3)[C@H](C)C2)CC1` [Example 166, N-(2-(4-((R)-4-cyclopropyl-3-methylpiperazine-1-yl)piperidine-1-yl)-4-methoxy-5-((6-((R)-3-(2,3,6-trifluorophenyl)isoxazolidine-2-yl)pyrimidine-4-yl)amino)phenyl)acrylamide] was tested, and the “Ba/F3 (NPH) Activity” value was “A (GI50 < 50 nM)”.
For `C=CC(=O)Nc1cc(Nc2cc(N3OCC[C@@H]3c3ccc(C)nc3)ncn2)c(OC)cc1N1CCOCC1` [Example 43], the “Ba/F3 (NPH) Activity” value was “B (50 nM ≤ GI50 < 500 nM)”.
`C=CC(=O)Nc1cc(Nc2cc(N3OCC[C@@H]3c3ccc4ccccc4c3)ncn2)c(OC)cc1N1CCN(C)[C@@H](C)C1` [compound 662, N-(2-((S)-3,4-dimethylpiperazine-1-yl)-4-methoxy-5-((6-((R)-3-(naphthalene-2-yl)isoxazolidine-2-yl)pyrimidine-4-yl)amino)phenyl)acrylamide] was tested, and the “Ba/F3 (NPH) Activity” value was “B (50 nM ≤ GI50 < 500 nM)”.
